Results taken from ChEMBL document CHEMBL1136593, “Design, synthesis, and discovery of 5-piperazinyl-1,2,6,7-tetrahydro-5H-azepino[3,2,1-hi]indol-4-one derivatives: a novel series of mixed dopamine D2/D4 receptor antagonist” (Bioorg Med Chem Lett, 2003).

Assays:
D(2) dopamine receptor [1] = molecular target: T1, D(2) dopamine receptor (Homo sapiens, UniProt P14416); test: Displacement of [3H]-YM 09151 from D2 receptor
D(4) dopamine receptor [2] = molecular target: T2, D(4) dopamine receptor (Homo sapiens, UniProt P21917); test: Displacement of [3H]-YM 09151 from D4 receptor
T2 sequence (P21917 whole entry): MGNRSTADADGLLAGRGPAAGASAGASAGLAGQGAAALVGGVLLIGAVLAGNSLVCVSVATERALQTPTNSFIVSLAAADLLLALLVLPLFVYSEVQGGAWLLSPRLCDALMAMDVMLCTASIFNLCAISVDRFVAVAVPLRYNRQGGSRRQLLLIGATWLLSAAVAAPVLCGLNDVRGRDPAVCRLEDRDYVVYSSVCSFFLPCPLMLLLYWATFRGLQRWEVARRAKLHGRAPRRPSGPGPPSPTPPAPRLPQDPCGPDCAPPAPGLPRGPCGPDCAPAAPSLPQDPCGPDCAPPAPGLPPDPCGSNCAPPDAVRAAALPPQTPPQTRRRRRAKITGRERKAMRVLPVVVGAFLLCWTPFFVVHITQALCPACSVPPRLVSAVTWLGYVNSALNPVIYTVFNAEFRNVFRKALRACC

[3] = molecular target: T3, Adrenergic receptor alpha-1 (Rattus norvegicus, UniProt P15823+P23944+P43140); test: Displacement of [3H]prazosin from alpha-1 adrenergic receptor of rat brain homogenate
T3 sequence (P15823 whole entry): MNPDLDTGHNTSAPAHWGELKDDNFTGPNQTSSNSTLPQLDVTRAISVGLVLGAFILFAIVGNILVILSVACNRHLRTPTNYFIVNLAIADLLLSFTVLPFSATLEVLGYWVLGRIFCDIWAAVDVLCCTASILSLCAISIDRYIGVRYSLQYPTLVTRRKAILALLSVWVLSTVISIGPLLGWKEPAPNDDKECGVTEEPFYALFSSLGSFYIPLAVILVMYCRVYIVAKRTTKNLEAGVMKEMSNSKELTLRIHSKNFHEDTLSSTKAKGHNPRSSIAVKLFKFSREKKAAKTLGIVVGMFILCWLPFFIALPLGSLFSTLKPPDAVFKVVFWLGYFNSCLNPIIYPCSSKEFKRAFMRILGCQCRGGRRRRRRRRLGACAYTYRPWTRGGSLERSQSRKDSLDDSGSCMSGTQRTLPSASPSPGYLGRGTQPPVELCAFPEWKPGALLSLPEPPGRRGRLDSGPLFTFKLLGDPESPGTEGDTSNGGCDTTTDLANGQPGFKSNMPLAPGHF
T3 sequence (P23944 whole entry): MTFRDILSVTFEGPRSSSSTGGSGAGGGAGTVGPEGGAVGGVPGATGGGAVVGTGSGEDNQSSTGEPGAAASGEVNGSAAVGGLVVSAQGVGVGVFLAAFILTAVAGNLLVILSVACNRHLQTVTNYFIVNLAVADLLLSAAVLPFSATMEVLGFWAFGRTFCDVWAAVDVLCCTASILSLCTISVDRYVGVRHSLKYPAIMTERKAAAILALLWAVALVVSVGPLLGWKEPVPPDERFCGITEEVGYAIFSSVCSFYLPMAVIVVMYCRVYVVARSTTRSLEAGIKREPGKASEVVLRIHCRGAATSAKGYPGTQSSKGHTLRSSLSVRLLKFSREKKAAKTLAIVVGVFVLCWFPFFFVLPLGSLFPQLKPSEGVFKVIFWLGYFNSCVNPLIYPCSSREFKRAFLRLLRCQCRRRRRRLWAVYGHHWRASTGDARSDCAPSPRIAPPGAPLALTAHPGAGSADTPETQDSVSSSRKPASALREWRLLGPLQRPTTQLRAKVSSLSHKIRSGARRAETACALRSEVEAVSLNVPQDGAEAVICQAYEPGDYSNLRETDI
T3 sequence (P43140 whole entry): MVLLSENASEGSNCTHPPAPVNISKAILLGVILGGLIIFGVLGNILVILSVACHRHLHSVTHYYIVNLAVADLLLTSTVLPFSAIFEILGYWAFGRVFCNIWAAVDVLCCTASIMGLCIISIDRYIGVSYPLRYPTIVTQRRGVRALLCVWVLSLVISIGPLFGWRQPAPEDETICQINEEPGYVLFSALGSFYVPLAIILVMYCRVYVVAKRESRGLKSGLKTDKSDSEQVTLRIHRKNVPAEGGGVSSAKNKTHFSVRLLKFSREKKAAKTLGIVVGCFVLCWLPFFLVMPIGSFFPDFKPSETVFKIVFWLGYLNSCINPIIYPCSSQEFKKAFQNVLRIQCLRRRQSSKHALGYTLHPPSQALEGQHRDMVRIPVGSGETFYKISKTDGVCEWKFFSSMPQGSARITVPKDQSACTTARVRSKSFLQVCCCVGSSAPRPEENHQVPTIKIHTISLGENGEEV

D(4) dopamine receptor [4] = molecular target: T2, D(4) dopamine receptor; test: D4 receptor functional activity was measured inhibition of quinpirole stimulated [35S]GTP-gamma-S binding from cell membranes.
D(2) dopamine receptor [5] = molecular target: T1, D(2) dopamine receptor; test: D2 receptor functional activity was measured through reversal of quinpirole inhibited, forskolin stimulated cAMP production from whole cells

T1 sequence (P14416 whole entry): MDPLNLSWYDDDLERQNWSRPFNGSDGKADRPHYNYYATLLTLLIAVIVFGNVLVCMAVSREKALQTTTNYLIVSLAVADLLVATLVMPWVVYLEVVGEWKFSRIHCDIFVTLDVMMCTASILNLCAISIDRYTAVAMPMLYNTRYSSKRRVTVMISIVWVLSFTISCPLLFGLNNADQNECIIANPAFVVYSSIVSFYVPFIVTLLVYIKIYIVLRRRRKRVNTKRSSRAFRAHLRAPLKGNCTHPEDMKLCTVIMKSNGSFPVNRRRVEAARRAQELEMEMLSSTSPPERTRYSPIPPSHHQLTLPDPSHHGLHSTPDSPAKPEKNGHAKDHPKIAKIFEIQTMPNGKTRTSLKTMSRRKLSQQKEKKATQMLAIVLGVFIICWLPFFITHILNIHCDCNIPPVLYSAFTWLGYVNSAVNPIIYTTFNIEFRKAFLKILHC

Ki (D(2) dopamine receptor [1]) [nM]	Ki (D(4) dopamine receptor [2]) [nM]	Ki [3] [nM]	Ki (D(4) dopamine receptor [4]) [nM]	Ki (D(2) dopamine receptor [5]) [nM]	SMILES
952	34	653	–	–	COc1cc(C)ccc1CN1CCN(C2CCc3cccc4c3N(C2=O)C(C)(C)C4)CC1 (configuration not stated)
313	65	983	–	–	COc1ccc(C)cc1CN1CCN(C2CCc3cccc4c3N(C2=O)C(C)(C)C4)CC1 (configuration not stated)
165	12	490	–	–	Cc1ccc(CN2CCN(C3CCc4cccc5c4N(C3=O)C(C)(C)C5)CC2)cc1 (configuration not stated)
220	29	1056	–	–	COc1ccc(Cl)cc1CN1CCN(C2CCc3cccc4c3N(C2=O)C(C)(C)C4)CC1 (configuration not stated)
–	–	1735	–	–	CC1(C)Cc2cccc3c2N1C(=O)C(N1CCN(Cc2ccc(Cl)cc2)CC1)CC3 (configuration not stated)

Second part, the compound before the results:

SMILES	Ki (D(2) dopamine receptor [1]) [nM]	Ki (D(4) dopamine receptor [2]) [nM]	Ki [3] [nM]	Ki (D(4) dopamine receptor [4]) [nM]	Ki (D(2) dopamine receptor [5]) [nM]
Cc1ccc(CN2CCN(C3CCc4cccc5c4N(C3=O)C(C)C5)CC2)cc1 (configuration not stated)	26	10	1000	–	–
CC1Cc2cccc3c2N1C(=O)C(N1CCN(Cc2ccc(Cl)cc2)CC1)CC3 (configuration not stated)	139	–	1000	–	–
Cc1ccc(CN2CCN(C3CCc4cccc5c4N(CC5)C3=O)CC2)cc1 (configuration not stated)	209	–	1361	–	–
O=C1C(N2CCN(Cc3ccc(Cl)cc3)CC2)CCc2cccc3c2N1CC3 (configuration not stated)	116	5	2284	3	62
CCN1C(=O)C(N2CCN(Cc3ccc(Cl)cc3)CC2)CCc2ccccc21 (configuration not stated)	–	–	2678	–	–
CCN1C(=O)C(N2CCN(Cc3ccc(Cl)cc3)CC2)Cc2ccccc21 (configuration not stated)	–	–	1265	–	–
